Experiment: xn = mol fraction of the nth substance listed
Settings: 100 kPa

CC(=O)[O-].CC[n+]1ccn(C)c1 + O
viscosity [mPa·s]
Settings | 293.15 K | 303.15 K | 313.15 K | 323.15 K | 333.15 K | 343.15 K | 353.15 K
x2 = 0 | 203 | 104.8 | 61.1 | 38.9 | 26.56 | 19.01 | 14.24
x2 = 0.2088 | – | 77.9 | – | – | 20.8 | – | –
x2 = 0.4 | 88.6 | – | – | 23.04 | 16.47 | – | 9.27
x2 = 0.6014 | 51.8 | 32.6 | 21.88 | 15.4 | 11.09 | 8.39 | –
x2 = 0.8023 | 20.45 | 13.51 | 9.41 | 6.6 | 4.95 | – | 3.021
